Literature values, collected in US7411005B2, “Compositions and methods for increasing milk production in animals” (Van Beek Natural Science, LLC, priority 2002, dated 2008).

Conditions: inactive metabolites after degradation by enzymes

Structure (SMILES)	metabolites excreted in the urine	metabolites expired from the lungs in the form of CO2
Cc1ccc(C(C)C)c(O)c1 [isopropyl-cresol, 5-methyl-2[1-methylethyl]phenol]	approx. 90%	10%
Cc1ccc(C(C)C)cc1O [isopropyl-o-cresol, 5-isopropyl-2-methylphenol]	approx. 90%	10%
